Read-outs that look alike come from different tables or passages of the source.
Tests used:
[1] = target: SARS-CoV-2 PLpro (Severe acute respiratory syndrome coronavirus 2, UniProt P0DTD1); assay: FRET-based PLpro enzymatic assay; assay type: biochemical
Protocol: The SARS-CoV-2 PL^pro enzymatic assays were carried out as follows. The assay was assembled in 96-well plates with 100 μl of 200 nM PL^Pro protein in PL^Pro reaction buffer [50 mM Hepes (pH 7.5), 0.01% Triton X-100, and 5 mM DTT]. Then, 1 μl of testing compound at various concentrations was added to each well and incubated at 30° C. for 30 minutes. The enzymatic reaction was initiated by adding 1 μl of 1 mM FRET substrate (the final substrate concentration is 10 μM). The reaction was monitored in a Cytation 5 image reader with filters for excitation at 360/40 nm and emission at 460/40 nm at 30° C. for 1 hour. The initial velocity of the enzymatic reaction with and without testing compounds was calculated by linear regression for the first 15 minutes of the kinetic progress curve. The IC50 values were calculated by plotting the initial velocity against various concentrations of testing compounds with a dose-response function in Prism 8 software.

[2] = Cytotoxicity assay in Vero E6 cells (neutral red uptake); assay type: cell-based; settings: African green monkey
Protocol: Briefly, 80.000 cells/ml of the tested cell lines were dispensed into 96-well cell culture plates at 100 μl per well Twenty-four hours later, the growth medium was removed and washed with 150 μl of PBS buffer. Two hundred microliters of fresh serum-free medium containing serial diluted compounds was added to each well. After incubating for 2 days at 37° C., the medium was removed and replaced with 100 μl of DMEM medium containing neutral red (40 μg/ml) and incubated for 2 to 4 hours at 37° C. The amount of neutral red taken up was determined by measuring the absorbance at 540 nm using a Multiskan FC Microplate Photometer (Thermo Fisher Scientific) The CC50 values were calculated from best-fit dose-response curves with variable slope in Prism 8.

[3] = 200 nM PLpro, 10 μM FRET substrate, 30 min preincubation at 30° C., read-out: IC50
[4] = Vero E6 cells, 2 days at 37° C., neutral red uptake, read-out: Vero CC50

| Compound | IC50 [1, 3] [µM] | CC50 at 2 days [2, 4] [µM] | IC50 [1] [µM] | CC50 at 2 days [2] [µM] |
| --- | --- | --- | --- | --- |
| Cc1ccc(OC[C@@H]2C[C@@H](F)CN2C)cc1C(=O)NC1(c2cc(-c3cnn(C)c3)nc3ccccc23)CC1 [Example 114, 5-(((2S,4R)-4-fluoro-1-methylpyrrolidin-2-yl)methoxy)-2-methyl-N-(1-(2-(1-methyl-1H-pyrazol-4-yl)quinolin-4-yl)cyclopropyl)benzamide] | < 0.5 | 51.3 ± 6.52 |  |  |
| Cc1ccc(OCCN(C)C)cc1C(=O)N[C@H](C)c1cc(-c2cnc3[nH]ccc3c2)nc2ccccc12 [Example 60, (R)—N-(1-(2-(1H-pyrrolo[2,3-b]pyridin-5-yl)-quinolin-4-yl)ethyl)-5-(2-(dimethylamino)ethoxy)-2-methylbenzamide] | > 5 | 25.8 ± 2.25 |  |  |
| Cc1ccc(OCCN(C)C)cc1C(=O)N[C@H](C)c1cc(-c2ccn[nH]2)nc2ccccc12 [Example 15, (R)—N-(1-(2-(1H-pyrazol-5-yl)quinolin-4-yl)ethyl)-5-(2-(dimethylamino)ethoxy)-2-methylbenzamide] | < 0.5 | 63.2 ± 9.51 |  |  |
| Cc1ccc(N2C[C@H]3CN(C)C[C@H]3C2)cc1C(=O)N[C@H](C)c1cc(-c2ccn(C)n2)nc2ccccc12 [Example 103, 2-methyl-N—((R)-1-(2-(1-methyl-1H-pyrazol-3-yl)quinolin-4-yl)ethyl)-5-((3aR,6aS)-5-methylhexahydropyrrolo[3,4-c]pyrrol-2(1H)-yl)benzamide] | < 0.5 | 27.3 ± 1.74 |  |  |
| Cc1ccc(N2CCN(C)C3(CC3)C2)cc1C(=O)N[C@H](C)c1cc(-c2ccn(C)n2)nc2ccccc12 [Example 101, (R)-2-methyl-N-(1-(2-(1-methyl-1H-pyrazol-3-yl)quinolin-4-yl)ethyl)-5-(4-methyl-4,7-diazaspiro[2.5]octan-7-yl)benzamide] | 0.5 to 1 | 40.8 ± 4.27 |  |  |
| Cc1ccc(OCCN(C)C)cc1C(=O)N[C@H](C)c1cc(-c2cncnc2)nc2ccccc12 [Example 57, (R)-5-(2-(dimethylamino)ethoxy)-2-methyl-N-(1-(2-(pyrimidin-5-yl)quinolin-4-yl)ethyl)benzamide] | 0.5 to 1 | 74.6 ± 17.4 |  |  |
| Cc1ccc(OCCN(C)C)cc1C(=O)N[C@@H](C)c1cc(-c2cnn(C(F)F)c2)nc2ccccc12 [Example 18] | 0.5 to 1 | 47.1 ± 6.43 |  |  |
| Cc1ccc(OCCN(C)C)cc1C(=O)N[C@H](C)c1cc(-c2cnn(CC(=O)N(C)C)c2)nc2ccccc12 [Example 71, (R)—N-(1-(2-(1-(2-(dimethylamino)-2-oxoethyl)-1H-pyrazol-4-yl)quinolin-4-yl)ethyl)-5-(2-(dimethylamino)ethoxy)-2-methylbenzamide] | < 0.5 | > 250 |  |  |
| Cc1ccc(N2CC3CCC(C2)N3C)cc1C(=O)NC1(c2cc(-c3cnn(C)c3)nc3ccccc23)CC1 [Example 112, 2-methyl-N-(1-(2-(1-methyl-1H-pyrazol-4-yl)quinolin-4-yl)cyclopropyl)-5-(8-methyl-3,8-diazabicyclo[3.2.1]octan-3-yl)benzamide] |  |  | < 0.5 | 53.8 ± 2.52 |
| CCn1ccc(-c2cc([C@@H](C)NC(=O)c3cc(N4C[C@H]5C[C@@H]4CN5C)ccc3C)c3ccccc3n2)n1 [Example 107, N—((R)-1-(2-(1-ethyl-1H-pyrazol-3-yl)quinolin-4-yl)ethyl)-2-methyl-5-((1R,4R)-5-methyl-2,5-diazabicyclo[2.2.1]heptan-2-yl)benzamide] | < 0.5 | 22.3 ± 1.39 |  |  |
| CCn1ccc(-c2cc([C@@H](C)NC(=O)c3cc(N4CC5CCC(C4)N5C)ccc3C)c3ccccc3n2)n1 [Example 106, N—((R)-1-(2-(1-ethyl-1H-pyrazol-3-yl)quinolin-4-yl)ethyl)-2-methyl-5-(8-methyl-3,8-diazabicyclo[3.2.1]octan-3-yl)benzamide] |  |  | < 0.5 | 31.3 ± 7.45 |
| Cc1ccc(N2CCN(C)CC2)cc1C(=O)N[C@H](C)c1cc(-c2ccco2)nc2ccccc12 [Example 74, (R)—N-(1-(2-(furan-2-yl)quinolin-4-yl)ethyl)-2-methyl-5-(4-methylpiperazin-1-yl)benzamide] | < 0.5 | 19.5 ± 1.13 |  |  |
| Cc1ccc(OCCN(C)C)cc1C(=O)N[C@H](C)c1cc(-c2cnn(CCC#N)c2)nc2ccccc12 [Example 59, (R)—N-(1-(2-(1-(2-cyanoethyl)-1H-pyrazol-4-yl)quinolin-4-yl)ethyl)-5-(2-(dimethylamino)ethoxy)-2-methylbenzamide] | > 5 | 101 ± 15.2 |  |  |
| Cc1ccc(OCCN(C)C)cc1C(=O)N[C@H](C)c1cc(N2CCOCC2)nc2ccccc12 [Example 45, (R)-5-(2-(dimethylamino)ethoxy)-2-methyl-N-(1-(2-morpholinoquinoline-4-yl)ethyl)benzamide] | 0.5 to 1 | 166 ± 33.2 |  |  |
| Cc1ccc(N2CC(N(C)C)C2)cc1C(=O)N[C@H](C)c1cc(-c2cnn(C)c2)nc2ccccc12 [Example 95, (R)-5-(3-(dimethylamino)azetidin-1-yl)-2-methyl-N-(1-(2-(1-methyl-1H-pyrazol-4-yl)quinolin-4-yl)ethyl)benzamide] | 0.5 to 1 | 311 ± 21.1 |  |  |
| Cc1ccc(OCCN(C)C)cc1C(=O)N[C@H](C)c1cc(OCc2c(F)c(F)c(F)c(F)c2F)nc2ccccc12 [Example 58, (R)-5-(2-(dimethylamino)ethoxy)-2-methyl-N-(1-(2-((perfluorophenyl)methoxy)quinolin-4-yl)ethyl)benzamide] | > 5 | > 50 |  |  |
| Cc1ccc(OCCN(C)C)cc1C(=O)N[C@H](C)c1cc(-c2ccc(N)nc2)nc2ccccc12 [Example 9, (R)—N-(1-(2-(6-aminopyridin-3-yl)quinolin-4-yl)ethyl)-5-(2-(dimethylamino)ethoxy)-2-methylbenzamide] | < 0.5 | 36.2 ± 6.83 |  |  |
| Cc1ccc(OCCN(C)C)cc1C(=O)N[C@H](C)c1cc(-c2cnn(C3CC3)c2)nc2ccccc12 [Example 8, (R)—N-(1-(2-(1-cyclopropyl-1H-pyrazol-4-yl)quinolin-4-yl)ethyl)-5-(2-(dimethylamino)ethoxy)-2-methylbenzamide] | < 0.5 | 63.1 ± 8.7 |  |  |
| CCn1ccc(-c2cc([C@@H](C)NC(=O)c3cc(N4CCN(C)[C@H](C)C4)ccc3C)c3ccccc3n2)n1 [Example 104, 5-((R)-3,4-dimethylpiperazin-1-yl)-N—((R)-1-(2-(1-ethyl-1H-pyrazol-3-yl)quinolin-4-yl)ethyl)-2-methylbenzamide] | < 0.5 | 30.5 ± 2.21 |  |  |
| COc1cc(-c2cc([C@@H](C)NC(=O)c3cc(OCCN(C)C)ccc3C)c3ccccc3n2)cs1 [Example 68, (R)-5-(2-(dimethylamino)ethoxy)-N-(1-(2-(5-methoxythiophene-3-yl)quinolin-4-yl)ethyl)-2-methylbenzamide] | < 0.5 | 13.9 ± 4.32 |  |  |
| Cc1ccc(OCCN(C)C)cc1C(=O)N[C@H](C)c1cc(-c2cncn2C)nc2ccccc12 [Example 66, (R)-5-(2-(dimethylamino)ethoxy)-2-methyl-N-(1-(2-(1-methyl-1H-imidazol-5-yl)quinolin-4-yl)ethyl)benzamide] | < 0.5 | 79.5 ± 8.62 |  |  |
| Cc1ccc(OCCN(C)C)cc1C(=O)N[C@H](C)c1cc(-c2cnn(C3CCC3)c2)nc2ccccc12 [Example 64, (R)—N-(1-(2-(1-cyclobutyl-1H-pyrazol-4-yl)quinolin-4-yl)ethyl)-5-(2-(dimethylamino)ethoxy)-2-methylbenzamide] | < 0.5 | 25.3 ± 5.82 |  |  |

Reference: patent US20240382494A1, “THERAPEUTIC COMPOUNDS” (priority 2023, published 2024)
